Experimental findings from patent US20040082551A1, “Novel pyrazoles and their use as p38 kinase inhibitors” (priority 2002, published 2004) are described below.

The IC50 is the concentration that inhibits the measured activity by half.

“And” between values parts separate entries of the source, which are not always exact repeats. Identical values can stand only once. Counter-ions that a name gives are not always drawn.

The target in the first assay is T1, human p38 kinase alpha (Homo sapiens, UniProt Q16539).
T1 construct: The coding region of the human p38α cDNA was obtained by PCR-amplification from RNA isolated from the human monocyte cell line THP.1; made in house; host or cells: E. coli DH10B
T1 sequence (Q16539 whole entry): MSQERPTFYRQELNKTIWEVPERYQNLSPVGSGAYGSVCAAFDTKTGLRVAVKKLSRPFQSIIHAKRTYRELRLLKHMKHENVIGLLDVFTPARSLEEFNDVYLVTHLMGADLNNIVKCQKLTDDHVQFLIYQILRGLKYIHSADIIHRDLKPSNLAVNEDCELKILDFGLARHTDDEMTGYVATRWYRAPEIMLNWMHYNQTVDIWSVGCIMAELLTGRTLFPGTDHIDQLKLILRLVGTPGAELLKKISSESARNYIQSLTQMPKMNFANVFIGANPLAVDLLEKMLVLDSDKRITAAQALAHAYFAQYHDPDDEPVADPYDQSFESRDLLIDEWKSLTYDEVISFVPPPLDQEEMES
The assay can be described thus: In vitro p38 kinase inhibition analysis (PHAS-I 32P-ATP or EGFRP 33P-ATP format). In kind it is biochemical. Conditions: Table 1; compounds of Examples 1-28; one of two in vitro assay methods; Hydrochloride Hydrate; read-out: p38α Kinase Inhibition (IC50 in μM). How it is done: The ability of compounds to inhibit human p38 kinase alpha was evaluated using one of two in vitro assay methods. In the first method, activated human p38 kinase alpha phosphorylates a biotinylated substrate, PHAS-I (phosphorylated heat and acid stable protein-insulin inducible), in the presence of gamma ^32P-ATP (^32P-ATP). PHAS-I was biotinylated before the assay, and provided a means of capturing the substrate which was phosphorylated during the assay. p38 Kinase was activated by MKK6. Compounds were tested in 10 fold serial dilutions over the range of 100 μM to 0.001 μM using 1% DMSO. Each concentration of inhibitor was tested in triplicate.
All reactions were carried out in 96 well polypropylene plates. Each reaction well contained 25 mM HEPES pH 7.5, 10 mM magnesium acetate, and 50 μM unlabeled ATP. […] Activated human p38 kinase alpha was used at 1 μg per 50 μl reaction volume, representing a final concentration of 0.3 μM. Gamma ^32P-ATP was used to follow the phosphorylation of PHAS-I. ^32P-ATP has a specific activity of 3000 Ci/mmol, and was used at 1.2 μCi per 50 μl reaction volume. The reaction proceeded either for one hr or overnight at 30° C.
Following incubation, 20 μl of reaction mixture was transferred to a high capacity streptavidin coated filter plate (SAM-streptavidin-matrix, Promega) prewetted with phosphate buffered saline. The transferred reaction mix was allowed to contact the streptavidin membrane of the Promega plate for 1-2 min. […] Filter plates were air dried and 20 μl of scintillant was added. The plates were sealed and counted.
A second assay format was alternatively employed. This assay is based on p38 kinase alpha being induced phosphorylation of EGFRP (epidermal growth factor receptor peptide, a 21 mer) in the presence of ^33P-ATP. Compounds were tested in 10 fold serial dilutions over the range of 100 μM to 0.001 μM in 10% DMSO. Each concentration of inhibitor was tested in triplicate. Compounds were evaluated in 50 μl reaction volumes in the presence of 25 mM HEPES pH 7.5, 10 mM magnesium acetate, 4% glycerol, 0.4% bovine serum albumin, 0.4 mM DTT, 50 μM unlabeled ATP, 25 μg EGFRP (200 μM), and 0.05 uCi gamma ^33P-ATP. Reactions were initiated by addition of 0.09 μg of activated, purified human GST-p38 kinase alpha. Activation was carried out using GST-MKK6 (5:1,p38:MKK6) for one hr at 30° C. in the presence of 50 μM ATP. Following incubation for 60 min at room temperature, the reaction was stopped by addition of 150 μl of AG 1×8 resin in 900 mM sodium formate buffer, pH 3.0 (1 volume resin to 2 volumes buffer). The mixture was mixed three times with pipetting. Afterward, the resin was allowed to settle. A total of 50 μl of clarified solution head volume was transferred from the reaction wells to Microlite-2 plates. 150 μl of Microscint 40 was then added to each well of the Microlite plate, and the plate was sealed, mixed, and counted.
With `CN(CCO)[C@H]1CC[C@H](c2[nH]nc(-c3ccc(Cl)cc3)c2-c2ccncn2)CC1` [Example 12, 2-[{4-[3-(4-chlorophenyl)-4-pyrimidin-4-yl-1H-pyrazol-5-yl]cyclohexyl)(methyl)amino]ethanol Hydrochloride Hydrate], the IC50 turned out to be 0.0379 µM.
On to `Clc1ccc(-c2n[nH]c([C@H]3CC[C@H](N4CCCCC4)CC3)c2-c2ccncn2)cc1` [Example 8, 4-[3-(4-chlorophenyl)-5-(4-piperidin-1-ylcyclohexyl)-1H-pyrazol-4-yl]pyrimidine Hydrochloride Hydrate], for which the IC50 turned out to be 0.0582 µM.

The assay is the same for the next values; noted with them: Table 1; compounds of Examples 1-28; one of two in vitro assay methods; Phosphate Dihydrate; read-out: p38α Kinase Inhibition (IC50 in μM).
`O=C(COP(=O)(O)O)N1CCC(c2[nH]nc(-c3ccc(Cl)cc3)c2-c2ccncn2)CC1` [Example 24, di-sodium 2-{4-[3-(4-chlorophenyl)-4-pyrimidin-4-yl-1H-pyrazol-5-yl]piperidin-1-yl}-2-oxoethyl Dihydrogen Phosphate Dihydrate]: the half-maximal inhibitory concentration (IC50) turned out to be 0.0608 µM.
Take `O=C(COP(=O)(O)O)N1CCC(c2[nH]nc(-c3ccc(Cl)cc3)c2-c2ccncn2)CC1` [Example 23, mono-sodium 2-{4-[3-(4-chlorophenyl)-4-pyrimidin-4-yl-1H-pyrazol-5-yl]piperidin-1-yl}-2-oxoethyl Dihydrogen Phosphate Dihydrate]: the half-inhibitory concentration (IC50) worked out at 0.0681 µM.

The same assay, now with this note: Table 1; compounds of Examples 1-28; one of two in vitro assay methods; read-out: p38α Kinase Inhibition (IC50 in μM).
Turning to `Clc1ccc(-c2n[nH]c([C@H]3CC[C@H](NC4CCCCC4)CC3)c2-c2ccncn2)cc1` [Example 3, 4-[3-(4-chlorophenyl)-4-pyrimidin-4-yl-1H-pyrazol-5-yl]-N-cyclohexyltrans-cyclohexanamine], the half-maximal inhibitory concentration (IC50) came to 0.0452 µM.
Take `O=C(CO)N1CCC(c2[nH]nc(-c3ccc(Cl)cc3F)c2-c2ccncn2)CC1` [Example 27, 2-{4-[3-(4-chloro-2-fluorophenyl)-4-pyrimidin-4-yl-1H-pyrazol-5-yl]piperidin-1-yl}-2-oxoethanol]: the IC50 turned out to be 0.209 µM.
In the case of `CC(C)N[C@H]1CC[C@H](c2[nH]nc(-c3ccc(F)c(C(F)(F)F)c3)c2-c2ccncn2)CC1` [Example 14, 4-{3-[4-fluoro-3-(trifluoromethyl)phenyl]-4-pyrimidin-4-yl-1H-pyrazol-5-yl}-N-isopropylcyclohexanamine], the half-maximal inhibitory concentration (IC50) stood at 0.0723 µM.
Take `Fc1ccc(CN2CCC(c3[nH]nc(-c4ccc(Cl)cc4)c3-c3ccncn3)CC2)cc1` [Example 19, 4-{3-(4-chlorophenyl)-5-[1-(4-fluorobenzyl)piperidin-4-yl]-1H-pyrazol-4-yl}pyrimidine]: the IC50 was found to be 0.102 µM.
Turning to `CC(c1ccc(C(C)(C)O)cc1)N1CCC(c2[nH]nc(-c3ccc(Cl)cc3)c2-c2ccncn2)CC1` (stereo not shown) [Example 18, 2-[4-(1-{4-[3-(4-chlorophenyl)-4-pyrimidin-4-yl-1H-pyrazol-5-yl]piperidin-1-yl}ethyl)phenyl]propan-2-ol], the IC50 was determined as 0.0106 µM.

Still in this assay, the particulars now being: Table 2; additional pyrazole compounds, Examples 56-169; read-out: p38α Kinase Inhibition (IC50 in μM).
As for `CN(C)CCOc1nccc(-c2c(-c3cccc(Cl)c3)n[nH]c2C2CCNCC2)n1` [Example 138], the IC50 was 0.162 µM.
Consider `O=C(CO)N1CCC(c2[nH]nc(-c3ccc(F)c(Cl)c3)c2-c2ccncn2)CC1` [Example 70], for which the IC50 turned out to be 0.147 µM.
In the case of `CN(C)CCOc1nccc(-c2c(-c3ccc(Cl)cc3)n[nH]c2C2CCN(C(=O)CO)CC2)n1` [Example 97], the IC50 turned out to be 0.377 µM.
Consider `C[C@H](O)C(=O)N1CCC(c2[nH]nc(-c3cccc(Cl)c3F)c2-c2ccncn2)CC1` [Example 109], for which the concentration for half-maximal inhibition (IC50) was 0.379 µM.
With `CC(C)CCNc1nccc(-c2c(-c3ccc(Cl)cc3)n[nH]c2C2CCN(C(=O)CO)CC2)n1` [Example 100], the IC50 was 0.859 µM.
Consider `COc1cc(Cl)ccc1-c1n[nH]c(C2CCN(C(=O)COC(C)=O)CC2)c1-c1ccncn1` [Example 77], for which the IC50 was 22.8 µM.
Take `C[C@H](N[C@H]1CC[C@H](c2[nH]nc(-c3ccc(Cl)cc3)c2-c2ccncn2)CC1)c1ccc(F)cc1` [Example 128]: the IC50 was 0.00576 µM.
As to `C[C@H](O)C(=O)N1CCC(c2[nH]nc(-c3cc(F)cc(C(F)(F)F)c3)c2-c2ccncn2)CC1` [Example 115], the IC50 was 8.48 µM.
Same read-out and setting: for `CN(C)CCNc1nccc(-c2c(-c3ccc(F)c(C(F)(F)F)c3)n[nH]c2C2CCN(C(=O)CO)CC2)n1` [Example 118] the value was 0.814 µM.
Regarding `C[C@H](O)[C@@H](O)C(=O)N1CCC(c2[nH]nc(-c3ccc(Cl)cc3)c2-c2ccncn2)CC1` [Example 64], the IC50 amounted to 0.596 µM.
Still for that read-out and setting: under `COc1ccc(-c2n[nH]c(C3CCN(C(=O)CO)CC3)c2-c2ccncn2)cc1Cl` [Example 73] stands 1.2 µM.
Turning to `CN(C)CCOc1nccc(-c2c(-c3cccc(Cl)c3)n[nH]c2C2CCN(C(=O)CO)CC2)n1` [Example 116], the IC50 was determined as 0.727 µM.
Take `CC(C)C(N)C(=O)OCC(=O)N1CCC(c2[nH]nc(-c3ccc(Cl)cc3)c2-c2ccncn2)CC1` (stereo not shown) [Example 56]: the IC50 came to 0.0402 µM.
As for `CN(C)CCNc1nccc(-c2c(-c3ccc(Cl)cc3)n[nH]c2C2CCNCC2)n1` [Example 144], the concentration for half-maximal inhibition (IC50) was 0.159 µM.
Regarding `O=C([C@@H](O)CO)N1CCC(c2[nH]nc(-c3ccc(Cl)cc3)c2-c2ccncn2)CC1` [Example 65], the half-maximal inhibitory concentration (IC50) amounted to 0.256 µM.
As to `CN(C)CCNc1nccc(-c2c(-c3ccc(Cl)cc3F)n[nH]c2C2CCN(C(=O)CO)CC2)n1` [Example 162], the 50% inhibitory concentration (IC50) is 0.474 µM.
For `COc1cc(-c2n[nH]c(C3CCN(C(=O)CO)CC3)c2-c2ccncn2)ccc1Cl` [Example 72], the IC50 amounted to 4.6 µM.
`Fc1ccc(-c2n[nH]c(C3CCNCC3)c2-c2ccnc(NC3CCCC3)n2)cc1C(F)(F)F` [Example 164]: the IC50 worked out at 0.0225 µM.
With `N#Cc1cccc(Oc2nccc(-c3c(-c4ccc(Cl)cc4)n[nH]c3C3CCN(C(=O)CO)CC3)n2)c1` [Example 96], the half-maximal inhibitory concentration (IC50) worked out at 0.0697 µM.
`CC(C)(C)OC(=O)N1CCC(c2[nH]nc(-c3ccc(Cl)cc3)c2-c2ccnc(Oc3ccccc3C#N)n2)CC1` [Example 133]: the 50% inhibitory concentration (IC50) is 0.848 µM.
Regarding `O=C([C@H](O)CO)N1CCC(c2[nH]nc(-c3ccc(Cl)cc3)c2-c2ccncn2)CC1` [Example 63], the IC50 was determined as 0.416 µM.
As to `N#Cc1ccc(-c2n[nH]c(C3CCN(C(=O)CO)CC3)c2-c2ccncn2)cc1` [Example 74], the IC50 is 7.06 µM.
Take `CC(=O)OCC(=O)N1CCC(c2[nH]nc(-c3ccc(Cl)c(Cl)c3)c2-c2ccncn2)CC1` [Example 66]: the IC50 amounted to 0.216 µM.
For the compound `CN(C)CCOc1nccc(-c2c(-c3cccc(Cl)c3)n[nH]c2C2CCN(C(=O)OC(C)(C)C)CC2)n1` [Example 137], the IC50 amounted to 9.34 µM.
`O=C(CO)N1CCC(c2[nH]nc(-c3ccc(F)c(F)c3)c2-c2ccncn2)CC1` [Example 60]: the IC50 was 0.753 µM.
Still for that read-out and setting: for `CN(C)CCNc1nccc(-c2c(-c3ccc(Cl)cc3F)n[nH]c2C2CCNCC2)n1` [Example 161] the value was 0.202 µM; for `CN(C)CCOc1nccc(-c2c(-c3ccc(Cl)cc3F)n[nH]c2C2CCN(C(=O)CO)CC2)n1` [Example 158], 1.3 µM and 0.647 µM; for `CC(C)(C)OC(=O)N1CCC(c2[nH]nc(-c3ccc(Cl)cc3)c2-c2ccnc(Oc3ccc(C#N)cc3)n2)CC1` [Example 135], 1.5 µM.
`O=C(CO)N1CCC(c2[nH]nc(-c3cc(F)cc(C(F)(F)F)c3)c2-c2ccncn2)CC1` [Example 101]: the IC50 stood at 2.71 µM.
The same measure, in the same setting: for `C[C@H](O)C(=O)N1CCC(c2[nH]nc(-c3cc(Cl)ccc3F)c2-c2ccncn2)CC1` [Example 110] the value was 0.255 µM; for `O=C(CO)N1CCC(c2[nH]nc(-c3ccc(Cl)cc3O)c2-c2ccncn2)CC1` [Example 98], 1.31 µM.
